Data taken from US9993459B2, “Selective HDAC6 inhibitors and uses thereof” (Universiteit Gent, priority 2015, dated 2018).
Values joined by “and” are separate entries in the source; they are usually repeats but may differ in a detail not shown here. Equal entries are not always repeated.

Legend:
[1] = molecular target: HDAC1 (Homo sapiens, UniProt Q13547); test: In vitro HDAC isozyme selectivity screen: HDAC1; type: biochemical; conditions: for IC50: Table 2
[2] = molecular target: HDAC2 (Homo sapiens, UniProt Q92769); test: In vitro HDAC isozyme selectivity screen: HDAC2; type: biochemical; conditions: for IC50: Table 2
Sequence of HDAC2 (Q92769 whole entry, species assumed): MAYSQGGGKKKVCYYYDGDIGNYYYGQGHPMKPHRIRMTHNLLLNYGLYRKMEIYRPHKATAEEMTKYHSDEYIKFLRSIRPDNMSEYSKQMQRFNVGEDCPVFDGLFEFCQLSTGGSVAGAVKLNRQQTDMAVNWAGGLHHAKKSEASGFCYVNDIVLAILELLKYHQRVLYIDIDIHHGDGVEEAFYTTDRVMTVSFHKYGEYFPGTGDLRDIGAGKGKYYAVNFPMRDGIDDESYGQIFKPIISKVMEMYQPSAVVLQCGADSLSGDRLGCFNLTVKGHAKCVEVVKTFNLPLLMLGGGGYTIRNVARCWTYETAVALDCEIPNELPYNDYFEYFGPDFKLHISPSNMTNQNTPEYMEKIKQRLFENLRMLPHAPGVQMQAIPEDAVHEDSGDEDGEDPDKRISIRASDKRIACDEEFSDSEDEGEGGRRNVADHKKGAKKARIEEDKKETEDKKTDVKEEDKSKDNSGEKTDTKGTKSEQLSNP

[3] = molecular target: HDAC5 (Homo sapiens, UniProt Q9UQL6); test: In vitro HDAC isozyme selectivity screen: HDAC5; type: biochemical; conditions: for IC50: Table 2
Sequence of HDAC5 (Q9UQL6 whole entry, species assumed): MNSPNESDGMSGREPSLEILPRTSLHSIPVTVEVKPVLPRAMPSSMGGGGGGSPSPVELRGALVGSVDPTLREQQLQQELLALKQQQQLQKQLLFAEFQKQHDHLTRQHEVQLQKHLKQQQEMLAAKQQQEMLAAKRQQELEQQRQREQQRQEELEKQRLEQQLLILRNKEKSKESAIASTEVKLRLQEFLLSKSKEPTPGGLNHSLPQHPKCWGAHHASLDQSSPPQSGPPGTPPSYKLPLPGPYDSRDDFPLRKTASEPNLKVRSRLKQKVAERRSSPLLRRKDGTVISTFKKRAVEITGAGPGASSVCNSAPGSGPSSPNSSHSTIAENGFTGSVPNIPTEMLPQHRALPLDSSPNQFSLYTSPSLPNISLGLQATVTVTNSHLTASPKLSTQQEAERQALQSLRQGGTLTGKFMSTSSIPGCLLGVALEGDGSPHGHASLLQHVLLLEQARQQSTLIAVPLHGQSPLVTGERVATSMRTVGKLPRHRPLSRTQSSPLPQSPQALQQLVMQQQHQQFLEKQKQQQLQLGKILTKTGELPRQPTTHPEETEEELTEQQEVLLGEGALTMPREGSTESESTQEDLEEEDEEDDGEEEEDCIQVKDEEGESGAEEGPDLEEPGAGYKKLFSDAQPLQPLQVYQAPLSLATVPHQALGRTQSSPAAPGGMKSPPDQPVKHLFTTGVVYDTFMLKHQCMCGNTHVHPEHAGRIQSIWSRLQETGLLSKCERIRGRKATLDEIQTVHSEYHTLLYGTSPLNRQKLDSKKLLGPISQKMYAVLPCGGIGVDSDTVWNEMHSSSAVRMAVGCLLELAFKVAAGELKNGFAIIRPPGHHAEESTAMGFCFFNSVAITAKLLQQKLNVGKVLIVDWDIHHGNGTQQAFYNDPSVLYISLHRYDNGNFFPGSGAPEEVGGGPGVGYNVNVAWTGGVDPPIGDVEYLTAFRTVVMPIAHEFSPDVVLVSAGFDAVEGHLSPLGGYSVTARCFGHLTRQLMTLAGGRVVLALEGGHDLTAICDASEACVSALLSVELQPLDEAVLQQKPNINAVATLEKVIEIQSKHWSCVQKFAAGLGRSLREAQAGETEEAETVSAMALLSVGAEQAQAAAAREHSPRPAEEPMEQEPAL

[4] = molecular target: HDAC9 (Homo sapiens, UniProt Q9UKV0); test: In vitro HDAC isozyme selectivity screen: HDAC9; type: biochemical; conditions: for IC50: Table 2
Sequence of HDAC9 (Q9UKV0 whole entry, species assumed): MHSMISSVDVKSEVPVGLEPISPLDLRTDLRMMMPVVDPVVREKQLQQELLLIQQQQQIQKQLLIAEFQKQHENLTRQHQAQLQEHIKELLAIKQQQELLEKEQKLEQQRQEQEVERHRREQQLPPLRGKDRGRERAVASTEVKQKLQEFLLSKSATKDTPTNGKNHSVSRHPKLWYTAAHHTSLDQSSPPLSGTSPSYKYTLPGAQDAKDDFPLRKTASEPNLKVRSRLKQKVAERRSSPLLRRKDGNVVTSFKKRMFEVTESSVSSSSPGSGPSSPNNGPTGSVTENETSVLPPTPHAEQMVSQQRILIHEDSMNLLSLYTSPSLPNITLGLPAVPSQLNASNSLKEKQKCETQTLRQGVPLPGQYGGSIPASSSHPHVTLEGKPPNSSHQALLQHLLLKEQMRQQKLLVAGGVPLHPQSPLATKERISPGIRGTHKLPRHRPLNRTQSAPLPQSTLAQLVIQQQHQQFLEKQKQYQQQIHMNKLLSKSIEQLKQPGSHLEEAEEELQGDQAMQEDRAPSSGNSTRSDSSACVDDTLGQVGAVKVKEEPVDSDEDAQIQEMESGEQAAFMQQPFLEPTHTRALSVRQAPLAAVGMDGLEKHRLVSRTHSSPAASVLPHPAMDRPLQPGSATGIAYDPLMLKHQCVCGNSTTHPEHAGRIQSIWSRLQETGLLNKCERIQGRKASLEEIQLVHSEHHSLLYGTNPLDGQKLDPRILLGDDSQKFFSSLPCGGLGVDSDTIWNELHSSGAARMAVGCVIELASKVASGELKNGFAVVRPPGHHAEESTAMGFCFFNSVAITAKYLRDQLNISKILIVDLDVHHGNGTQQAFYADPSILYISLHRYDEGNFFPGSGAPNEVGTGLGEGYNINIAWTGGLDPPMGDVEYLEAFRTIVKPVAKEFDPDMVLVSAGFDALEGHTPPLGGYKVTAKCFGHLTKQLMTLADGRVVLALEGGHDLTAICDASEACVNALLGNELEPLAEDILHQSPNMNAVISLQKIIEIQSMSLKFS

[5] = molecular target: T1, HDAC10 (Homo sapiens, UniProt Q969S8); test: In vitro HDAC isozyme selectivity screen: HDAC10; type: biochemical; conditions: Table 2
T1 sequence (Q969S8 1-669): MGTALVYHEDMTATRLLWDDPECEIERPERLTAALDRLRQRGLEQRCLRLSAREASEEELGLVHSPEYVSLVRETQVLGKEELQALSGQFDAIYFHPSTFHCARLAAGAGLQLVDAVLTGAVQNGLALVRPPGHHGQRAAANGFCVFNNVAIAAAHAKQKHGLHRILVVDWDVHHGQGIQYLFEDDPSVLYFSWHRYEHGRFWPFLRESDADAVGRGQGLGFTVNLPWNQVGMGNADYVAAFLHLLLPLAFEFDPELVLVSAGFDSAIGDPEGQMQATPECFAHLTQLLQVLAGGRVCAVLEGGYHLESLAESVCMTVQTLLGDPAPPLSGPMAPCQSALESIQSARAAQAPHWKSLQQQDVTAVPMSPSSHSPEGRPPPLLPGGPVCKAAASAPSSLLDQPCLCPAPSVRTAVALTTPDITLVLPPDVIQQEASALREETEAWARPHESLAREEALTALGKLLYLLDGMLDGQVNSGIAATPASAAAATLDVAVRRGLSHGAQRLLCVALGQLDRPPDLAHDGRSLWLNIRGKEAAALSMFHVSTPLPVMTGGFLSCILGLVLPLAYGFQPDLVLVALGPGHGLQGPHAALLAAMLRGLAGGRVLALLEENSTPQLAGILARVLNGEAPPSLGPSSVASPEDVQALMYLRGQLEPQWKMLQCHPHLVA

[6] = molecular target: T2, HDAC11 (Homo sapiens, UniProt Q96DB2); test: In vitro HDAC isozyme selectivity screen: HDAC11; type: biochemical; conditions: Table 2
T2 sequence (Q96DB2 1-347): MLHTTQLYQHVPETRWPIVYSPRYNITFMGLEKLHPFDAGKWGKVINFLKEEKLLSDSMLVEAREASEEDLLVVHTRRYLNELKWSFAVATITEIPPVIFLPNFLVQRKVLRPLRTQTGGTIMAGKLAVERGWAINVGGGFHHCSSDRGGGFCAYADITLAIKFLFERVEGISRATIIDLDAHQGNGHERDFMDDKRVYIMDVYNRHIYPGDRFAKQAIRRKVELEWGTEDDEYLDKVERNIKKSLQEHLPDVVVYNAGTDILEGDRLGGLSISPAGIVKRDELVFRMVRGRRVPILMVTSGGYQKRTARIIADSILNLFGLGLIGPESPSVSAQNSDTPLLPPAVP

[7] = test system: acetylation of α-tubulin in Neuro-2a cells; test: Acetylation level of α-tubulin in Neuro-2a cells (Western blot); type: cell-based, Mouse; conditions: for normalized ratio Acetyl α-Tubulin/α-Tubulin against Tubastatin A, Average: Average of N = 1 to 4; for effect on the acetylation level of α-tubulin compared with Tubastatin A: Neuro-2a cells, in words
Protocol: FIG. 1: Potency of inhibiting HDAC6 by compounds 7a, 7b and 13a in Neuro-2a cells. A. Cells were treated overnight with different concentrations of the HDAC6 inhibitors and blotted of the acetylation of α-tubulin.
Mouse neuroblastoma (Neuro-2a) cells were grown in a 1:1 mix of D-MEM (Dulbecco's Modified Eagle Medium) and F12 medium supplemented with glutamax (Invitrogen), 100 μg/ml streptomycin, 100 U/ml penicillin (Invitrogen), 10% fetal calf serum (Greiner Bio-one), 1% non-essential amino acids (Invitrogen) and 1.6% NaHCO3 (Invitrogen) at 37° C. and 7.5% CO2. To split the cells, cells were washed with Versene (Invitrogen) and dissociated with 0.05% Trypsine-EDTA (Invitrogen).
For sodium dodecyl sulfate-polyacrylamide gel electrophoresis (SDS-PAGE) analysis, transfected cells were collected using the EpiQuik Total Histone Extraction Kit (EpiGentek) according to manufacturer's instructions. Protein concentrations were determined using microBCA kit (Thermo Fisher Scientific Inc., Pittsburgh, Pa., USA) according to manufacturer's instructions. Before resolving the samples on a 12% SDS-PAGE gel, samples containing equal amounts of protein were supplemented with reducing sample buffer (Thermo Scientific) and boiled at 95° C. for 5 min. After electrophoresis, the proteins were transferred to a polyvinylidene difluoride (PVDF) membrane (Millipore Corp., Bedford, Mass., USA). The non-specific binding was blocked by incubation of the membrane in 5% bovine serum albumin (BSA), diluted in Tris Buffered Saline Tween (TBST, 50 mM TRIS, 150 mM NaCl, 0.1% Tween-20 (Applichem, Darmstadt, Duitsland) for 1 h at room temperature followed by incubation with primary antibodies overnight. The antibodies, diluted in TBS-T, were directed against α-tubulin (1/5000, T6199, Sigma-Aldrich), and acetylated α-tubulin (1/5000, T6793 monoclonal, Sigma-Aldrich). The secondary antibodies, coupled to alkaline phosphatase (anti-mouse or anti-rabbit, 1/5000, Sigma-Aldrich) were used. Blots were visualised by adding the ECF substrate (Enhanced Chemical Fluorescence, GE Healthcare, Uppsala, Sweden) and imaged with the ImageQuant_LAS 4000. A mild reblotting buffer (Millipore) was applied to strip the blots. ImageQuant TL version 7.0-software was used to quantify the blots.
Neuro-2a cells were treated overnight with different concentrations of the HDAC6 inhibitors and the effect on the acetylation level of α-tubulin was determined using Western blots (FIG. 1).

Sequence of HDAC1 (Q13547 whole entry, species assumed): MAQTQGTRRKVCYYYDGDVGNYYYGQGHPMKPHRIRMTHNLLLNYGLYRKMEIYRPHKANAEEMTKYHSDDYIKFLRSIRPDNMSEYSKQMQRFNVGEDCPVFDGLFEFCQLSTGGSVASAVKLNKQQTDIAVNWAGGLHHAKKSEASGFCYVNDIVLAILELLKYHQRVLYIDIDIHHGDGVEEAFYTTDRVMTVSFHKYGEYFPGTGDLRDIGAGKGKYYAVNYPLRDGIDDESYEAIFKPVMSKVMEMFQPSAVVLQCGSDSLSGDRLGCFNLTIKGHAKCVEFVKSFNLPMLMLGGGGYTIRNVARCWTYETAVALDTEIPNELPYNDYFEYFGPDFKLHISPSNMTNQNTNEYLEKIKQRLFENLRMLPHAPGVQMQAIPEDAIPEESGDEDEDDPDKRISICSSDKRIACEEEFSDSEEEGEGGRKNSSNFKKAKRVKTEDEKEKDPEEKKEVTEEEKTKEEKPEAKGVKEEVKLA

| Compound | IC50 [1] | IC50 [2] | IC50 [3] | IC50 [4] | IC50 [5] | IC50 [6] | normalized ratio Acetyl α-Tubulin/α-Tubulin against Tubastatin A, Average ([7]; 10 nM, overnight, Neuro-2a) | normalized ratio Acetyl α-Tubulin/α-Tubulin against Tubastatin A, Average ([7]; 50 nM, overnight, Neuro-2a) | normalized ratio Acetyl α-Tubulin/α-Tubulin against Tubastatin A, Average ([7]; 100 nM, overnight, Neuro-2a) | normalized ratio Acetyl α-Tubulin/α-Tubulin against Tubastatin A, Average ([7]; 500 nM, overnight, Neuro-2a) | normalized ratio Acetyl α-Tubulin/α-Tubulin against Tubastatin A, Average ([7]; 1 μM, overnight, Neuro-2a) | effect on the acetylation level of α-tubulin compared with Tubastatin A [7] | effect at 100 μM, HDAC1 ([1]; 100 μM) | effect at 100 μM, HDAC2 ([2]; 100 μM) | effect at 100 μM, HDAC5 ([3]; 100 μM) | effect at 100 μM, HDAC9 ([4]; 100 μM) | normalized ratio Acetyl α-Tubulin/α-Tubulin against Tubastatin A ([7]; 1 μM, overnight, Neuro-2a, single experiments N = 1 to 4, Tub A 1 μM = 100) |
| --- | --- | --- | --- | --- | --- | --- | --- | --- | --- | --- | --- | --- | --- | --- | --- | --- | --- |
| O=C(NO)c1ccc(NCc2csc3ccccc23)cc1 [Compound 7a, 3-[(4-hydroxycarbamoylphenyl)aminomethyl]benzothiophene] | 7.5 µM | 30 µM | 17 µM | 7.1 µM | 9.9 µM | 31 µM | 24.02 | 46.70 | 67.40 | 139.23 | 90.45 | same effect on the acetylation level of α-tubulin as Tubastatin A |  |  |  |  |  |
| O=C(NO)c1ccc(NCc2csc3ccc(Br)cc23)cc1 [Compound 7b, 5-bromo-3-[(4-hydroxycarbamoylphenyl)aminomethyl]-benzothiophene] |  | > 100 µM | > 100 µM | > 100 µM | 33 µM | 15 µM | 8.35 | 15.75 | 27.24 | 63.70 | 83.19 | same effect on the acetylation level of α-tubulin as Tubastatin A | less than 50% | less than 50% | less than 50% | less than 50% | 99.53 and 83.22 and 69.97 and 80.03 |
| O=C(NO)c1ccc(NCc2csc3cc(Br)ccc23)cc1 [Compound 13a, 6-bromo-3-[(4-hydroxycarbamoylphenyl)aminomethyl]-benzothiophene] | 3.4 µM | 20 µM | 45 µM | 25 µM | 7.6 µM | 1.2 µM | 8.35 | 13.93 | 23.21 | 69.97 | 80.44 |  |  |  |  |  |  |
